Assay [1] relates to Receptor-type tyrosine-protein kinase FLT3 (Homo sapiens), P36888 [K663Q]. Description: Inhibition of FLT3 K663Q mutant (unknown origin) at 1 uM by Ambit Kinomescan binding assay relative to control; values are per cent of control.
Assay [2] concerns the target SRSF protein kinase 1 (Homo sapiens) (UniProt Q96SB4). Description: Inhibition of SRPK1 (unknown origin) at 10 uM by Ambit Kinomescan binding assay.
In assay [3] the target is Phosphatidylinositol 4-phosphate 3-kinase C2 domain-containing subunit beta (Homo sapiens) (UniProt O00750). The assay can be described thus: Inhibition of PIK3C2B ATP labeling site in human Huh-7 cells at 1 uM by KiNativ Profiling analysis relative to control. The class given is cell-based.
Phosphatidylinositol 4-phosphate 3-kinase C2 domain-containing subunit beta (Homo sapiens), sequence (O00750 whole entry, the tested form may be a part): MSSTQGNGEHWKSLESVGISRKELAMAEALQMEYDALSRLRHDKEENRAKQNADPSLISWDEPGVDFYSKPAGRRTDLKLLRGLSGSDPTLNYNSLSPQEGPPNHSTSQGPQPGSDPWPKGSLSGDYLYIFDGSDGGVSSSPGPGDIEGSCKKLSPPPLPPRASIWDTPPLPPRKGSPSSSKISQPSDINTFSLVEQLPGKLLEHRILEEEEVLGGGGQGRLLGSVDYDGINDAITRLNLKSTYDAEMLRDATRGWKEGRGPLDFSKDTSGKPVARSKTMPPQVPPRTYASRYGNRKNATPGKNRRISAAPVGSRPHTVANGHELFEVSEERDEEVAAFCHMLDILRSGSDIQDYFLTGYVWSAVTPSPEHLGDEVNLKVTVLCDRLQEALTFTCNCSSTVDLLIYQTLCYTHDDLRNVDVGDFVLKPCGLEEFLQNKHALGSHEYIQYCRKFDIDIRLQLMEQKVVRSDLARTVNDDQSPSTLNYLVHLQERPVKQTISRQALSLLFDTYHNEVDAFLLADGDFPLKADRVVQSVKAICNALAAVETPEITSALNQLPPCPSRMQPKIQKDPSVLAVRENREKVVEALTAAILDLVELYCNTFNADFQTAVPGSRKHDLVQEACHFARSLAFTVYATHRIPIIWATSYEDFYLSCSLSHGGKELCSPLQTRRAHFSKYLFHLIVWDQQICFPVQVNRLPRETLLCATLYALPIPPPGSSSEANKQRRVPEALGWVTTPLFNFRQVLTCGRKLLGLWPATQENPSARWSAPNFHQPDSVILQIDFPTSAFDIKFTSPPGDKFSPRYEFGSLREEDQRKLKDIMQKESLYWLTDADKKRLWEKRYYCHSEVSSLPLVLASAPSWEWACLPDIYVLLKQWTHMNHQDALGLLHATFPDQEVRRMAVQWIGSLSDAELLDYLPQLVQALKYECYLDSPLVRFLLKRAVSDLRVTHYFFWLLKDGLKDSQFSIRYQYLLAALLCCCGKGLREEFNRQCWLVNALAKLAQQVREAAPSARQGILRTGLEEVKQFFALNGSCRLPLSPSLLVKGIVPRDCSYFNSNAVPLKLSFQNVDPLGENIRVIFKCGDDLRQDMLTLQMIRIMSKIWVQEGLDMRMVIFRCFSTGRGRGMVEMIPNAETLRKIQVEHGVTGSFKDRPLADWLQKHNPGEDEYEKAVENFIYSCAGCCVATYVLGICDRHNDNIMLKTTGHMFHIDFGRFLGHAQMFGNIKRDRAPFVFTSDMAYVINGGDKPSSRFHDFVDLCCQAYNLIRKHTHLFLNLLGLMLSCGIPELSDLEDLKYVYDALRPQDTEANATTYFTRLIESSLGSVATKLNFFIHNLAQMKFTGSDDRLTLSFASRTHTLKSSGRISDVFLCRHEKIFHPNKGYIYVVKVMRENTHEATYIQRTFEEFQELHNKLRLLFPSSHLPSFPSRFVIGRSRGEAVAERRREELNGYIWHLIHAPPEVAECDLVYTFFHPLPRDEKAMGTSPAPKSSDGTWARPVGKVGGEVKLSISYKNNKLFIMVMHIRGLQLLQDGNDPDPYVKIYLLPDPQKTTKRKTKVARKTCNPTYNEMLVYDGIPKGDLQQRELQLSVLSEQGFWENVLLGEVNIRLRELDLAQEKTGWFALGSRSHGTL
The target in assay [4] is T1, Inhibitor of nuclear factor kappa-B kinase subunit epsilon (Homo sapiens) (UniProt Q14164).
T1 sequence (whole entry): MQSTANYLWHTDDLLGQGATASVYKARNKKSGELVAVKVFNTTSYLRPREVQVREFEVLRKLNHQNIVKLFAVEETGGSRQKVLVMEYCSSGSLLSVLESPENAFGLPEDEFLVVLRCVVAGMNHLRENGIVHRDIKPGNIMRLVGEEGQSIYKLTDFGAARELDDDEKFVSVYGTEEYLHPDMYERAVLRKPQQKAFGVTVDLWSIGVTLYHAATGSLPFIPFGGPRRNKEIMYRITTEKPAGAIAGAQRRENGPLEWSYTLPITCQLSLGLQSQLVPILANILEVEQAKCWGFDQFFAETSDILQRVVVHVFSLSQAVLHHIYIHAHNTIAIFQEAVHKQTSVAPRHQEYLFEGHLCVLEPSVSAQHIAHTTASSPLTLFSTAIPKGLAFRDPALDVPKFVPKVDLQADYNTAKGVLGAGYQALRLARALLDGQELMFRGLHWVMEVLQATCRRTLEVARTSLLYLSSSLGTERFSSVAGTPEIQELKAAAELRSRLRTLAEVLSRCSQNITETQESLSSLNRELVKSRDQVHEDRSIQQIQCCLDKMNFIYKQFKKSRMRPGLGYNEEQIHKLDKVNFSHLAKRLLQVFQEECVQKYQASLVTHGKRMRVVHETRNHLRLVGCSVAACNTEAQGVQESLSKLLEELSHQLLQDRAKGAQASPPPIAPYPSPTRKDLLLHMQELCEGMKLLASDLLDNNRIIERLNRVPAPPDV
Description: Inhibition of IKKe K2 labeling site in human Huh-7 cells at 10 uM by KiNativ Profiling analysis relative to control. The assay is classed as cell-based.

The target of assay [5] is Fibroblast growth factor receptor 1 (Homo sapiens) (UniProt P11362). Description: Inhibition of FGFR1 (unknown origin) at 10 uM by Ambit Kinomescan binding assay relative to control; values are per cent of control.
Fibroblast growth factor receptor 1 (Homo sapiens), sequence (P11362 22-822 limits assumed): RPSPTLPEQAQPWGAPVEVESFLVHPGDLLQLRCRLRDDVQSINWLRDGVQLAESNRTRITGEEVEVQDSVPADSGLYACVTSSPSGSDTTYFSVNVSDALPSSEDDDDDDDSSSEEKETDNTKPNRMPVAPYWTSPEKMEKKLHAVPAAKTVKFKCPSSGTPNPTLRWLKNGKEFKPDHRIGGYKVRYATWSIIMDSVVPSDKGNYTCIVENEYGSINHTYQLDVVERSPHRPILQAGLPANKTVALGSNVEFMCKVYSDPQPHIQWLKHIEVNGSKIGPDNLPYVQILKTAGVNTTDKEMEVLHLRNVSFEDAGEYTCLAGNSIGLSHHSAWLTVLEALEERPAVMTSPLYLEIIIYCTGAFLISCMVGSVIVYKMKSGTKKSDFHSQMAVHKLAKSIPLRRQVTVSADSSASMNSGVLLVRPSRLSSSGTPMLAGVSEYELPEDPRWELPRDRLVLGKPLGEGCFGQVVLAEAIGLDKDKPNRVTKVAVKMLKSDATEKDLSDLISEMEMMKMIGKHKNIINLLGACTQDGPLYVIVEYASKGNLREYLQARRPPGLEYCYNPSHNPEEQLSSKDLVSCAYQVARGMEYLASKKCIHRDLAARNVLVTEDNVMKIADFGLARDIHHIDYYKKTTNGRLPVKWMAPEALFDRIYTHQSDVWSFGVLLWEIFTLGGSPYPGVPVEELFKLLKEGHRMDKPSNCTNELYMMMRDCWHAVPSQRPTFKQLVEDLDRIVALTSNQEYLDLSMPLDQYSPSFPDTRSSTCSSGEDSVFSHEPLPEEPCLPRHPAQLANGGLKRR
For assay [6], the target named is T2, Serine/threonine-protein kinase Nek1 (Homo sapiens) (UniProt Q96PY6).
T2 sequence (whole entry): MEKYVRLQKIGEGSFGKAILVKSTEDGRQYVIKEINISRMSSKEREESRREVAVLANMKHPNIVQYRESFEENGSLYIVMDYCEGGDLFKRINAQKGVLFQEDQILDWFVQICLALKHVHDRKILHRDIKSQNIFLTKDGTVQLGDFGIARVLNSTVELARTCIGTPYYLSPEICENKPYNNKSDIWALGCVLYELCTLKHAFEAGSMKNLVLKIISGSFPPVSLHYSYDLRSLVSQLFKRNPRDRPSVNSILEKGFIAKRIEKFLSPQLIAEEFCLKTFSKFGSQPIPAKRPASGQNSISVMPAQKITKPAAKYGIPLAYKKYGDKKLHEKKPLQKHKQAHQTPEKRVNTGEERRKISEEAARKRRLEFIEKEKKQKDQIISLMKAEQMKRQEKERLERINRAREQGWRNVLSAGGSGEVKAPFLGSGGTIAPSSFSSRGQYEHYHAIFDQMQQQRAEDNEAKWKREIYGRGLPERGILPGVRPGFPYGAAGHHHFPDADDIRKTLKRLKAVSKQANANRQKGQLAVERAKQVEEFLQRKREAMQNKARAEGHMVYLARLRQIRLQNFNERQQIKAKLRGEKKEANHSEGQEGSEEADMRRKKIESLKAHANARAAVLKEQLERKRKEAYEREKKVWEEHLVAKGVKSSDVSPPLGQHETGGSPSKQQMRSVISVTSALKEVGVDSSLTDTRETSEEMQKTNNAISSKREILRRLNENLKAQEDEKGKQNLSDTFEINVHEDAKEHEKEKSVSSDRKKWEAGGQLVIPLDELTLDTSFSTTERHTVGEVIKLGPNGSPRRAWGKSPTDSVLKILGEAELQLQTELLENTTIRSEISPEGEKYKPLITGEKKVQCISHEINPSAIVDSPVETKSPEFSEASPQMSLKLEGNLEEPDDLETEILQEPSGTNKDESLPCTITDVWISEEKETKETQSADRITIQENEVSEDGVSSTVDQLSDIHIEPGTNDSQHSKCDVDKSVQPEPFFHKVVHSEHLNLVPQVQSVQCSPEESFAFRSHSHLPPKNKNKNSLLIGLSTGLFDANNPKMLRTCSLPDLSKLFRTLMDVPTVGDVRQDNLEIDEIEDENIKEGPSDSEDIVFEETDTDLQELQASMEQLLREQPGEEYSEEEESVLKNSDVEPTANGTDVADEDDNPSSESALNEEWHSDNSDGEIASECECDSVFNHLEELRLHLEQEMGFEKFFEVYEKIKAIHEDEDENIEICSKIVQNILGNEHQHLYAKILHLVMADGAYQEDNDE
The assay can be described thus: Inhibition of NEK1 K2 labeling site in human Huh-7 cells at 10 uM by KiNativ Profiling analysis relative to control. The class given is cell-based.

In assay [7] the target is Epidermal growth factor receptor (Homo sapiens) (UniProt P00533). Description: Inhibition of EGFR Lys1 labeling site harbouring GLWIPEGEKVKIPVAIKELR in human Huh-7 cells at 1 uM by KiNativ Profiling analysis relative to control. The assay is classed as cell-based.
Epidermal growth factor receptor (Homo sapiens), sequence (P00533 whole entry): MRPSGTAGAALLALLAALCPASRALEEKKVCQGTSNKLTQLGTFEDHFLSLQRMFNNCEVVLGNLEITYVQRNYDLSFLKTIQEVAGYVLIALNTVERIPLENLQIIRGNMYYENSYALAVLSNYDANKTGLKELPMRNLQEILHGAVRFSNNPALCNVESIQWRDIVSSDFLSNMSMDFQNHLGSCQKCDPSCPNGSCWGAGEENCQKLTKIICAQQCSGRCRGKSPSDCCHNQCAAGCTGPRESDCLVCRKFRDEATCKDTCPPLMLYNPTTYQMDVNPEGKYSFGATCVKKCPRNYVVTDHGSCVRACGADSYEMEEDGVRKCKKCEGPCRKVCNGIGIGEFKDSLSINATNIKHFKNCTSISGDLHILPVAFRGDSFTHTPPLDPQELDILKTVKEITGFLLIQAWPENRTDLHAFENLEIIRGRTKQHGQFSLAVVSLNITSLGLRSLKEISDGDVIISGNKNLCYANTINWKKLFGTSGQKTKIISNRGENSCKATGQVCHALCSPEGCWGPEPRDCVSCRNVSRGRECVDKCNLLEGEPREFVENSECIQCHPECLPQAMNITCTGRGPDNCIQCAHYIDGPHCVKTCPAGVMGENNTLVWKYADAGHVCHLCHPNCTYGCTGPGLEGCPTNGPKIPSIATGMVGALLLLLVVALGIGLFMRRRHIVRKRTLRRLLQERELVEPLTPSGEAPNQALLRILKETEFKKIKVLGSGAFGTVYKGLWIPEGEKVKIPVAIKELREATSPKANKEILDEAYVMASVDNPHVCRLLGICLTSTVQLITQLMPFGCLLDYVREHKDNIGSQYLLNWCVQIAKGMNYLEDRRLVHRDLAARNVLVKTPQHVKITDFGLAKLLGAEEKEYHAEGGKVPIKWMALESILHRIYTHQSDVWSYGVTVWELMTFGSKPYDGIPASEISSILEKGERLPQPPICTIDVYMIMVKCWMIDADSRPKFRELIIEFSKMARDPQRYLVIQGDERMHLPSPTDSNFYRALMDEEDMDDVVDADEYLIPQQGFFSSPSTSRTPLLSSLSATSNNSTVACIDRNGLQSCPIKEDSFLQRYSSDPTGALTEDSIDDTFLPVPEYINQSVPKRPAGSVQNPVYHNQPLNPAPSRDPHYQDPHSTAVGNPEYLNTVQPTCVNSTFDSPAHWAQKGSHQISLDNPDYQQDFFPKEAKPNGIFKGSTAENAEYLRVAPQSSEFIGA
In assay [8] the target is T3, EKC/KEOPS complex subunit TP53RK (Homo sapiens) (UniProt Q96S44).
T3 sequence (whole entry): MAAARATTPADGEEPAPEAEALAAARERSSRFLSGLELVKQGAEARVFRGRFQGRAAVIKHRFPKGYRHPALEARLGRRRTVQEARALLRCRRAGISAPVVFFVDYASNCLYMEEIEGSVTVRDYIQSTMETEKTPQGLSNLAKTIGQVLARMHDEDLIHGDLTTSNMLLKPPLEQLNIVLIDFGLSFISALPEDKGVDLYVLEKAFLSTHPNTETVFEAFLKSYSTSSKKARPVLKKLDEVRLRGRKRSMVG
Description: Inhibition of PRPK ATP Loop labeling site in human Huh-7 cells at 1 uM by KiNativ Profiling analysis relative to control. The class given is cell-based.

The nature of assay [9]: Inhibition of CASK Lys1 labeling site in human Huh-7 cells at 1 uM by KiNativ Profiling analysis relative to control.

The residual activity is what remains of the control signal, in per cent. A higher residual activity goes with much activity left. As usually defined, the inhibition is the drop in the measured response relative to a control, in per cent.

Activity calls are given as the source filed them. No cut-off for these calls is given here.

SRSF protein kinase 1 (Homo sapiens), sequence (Q96SB4 whole entry, the tested form may be a part): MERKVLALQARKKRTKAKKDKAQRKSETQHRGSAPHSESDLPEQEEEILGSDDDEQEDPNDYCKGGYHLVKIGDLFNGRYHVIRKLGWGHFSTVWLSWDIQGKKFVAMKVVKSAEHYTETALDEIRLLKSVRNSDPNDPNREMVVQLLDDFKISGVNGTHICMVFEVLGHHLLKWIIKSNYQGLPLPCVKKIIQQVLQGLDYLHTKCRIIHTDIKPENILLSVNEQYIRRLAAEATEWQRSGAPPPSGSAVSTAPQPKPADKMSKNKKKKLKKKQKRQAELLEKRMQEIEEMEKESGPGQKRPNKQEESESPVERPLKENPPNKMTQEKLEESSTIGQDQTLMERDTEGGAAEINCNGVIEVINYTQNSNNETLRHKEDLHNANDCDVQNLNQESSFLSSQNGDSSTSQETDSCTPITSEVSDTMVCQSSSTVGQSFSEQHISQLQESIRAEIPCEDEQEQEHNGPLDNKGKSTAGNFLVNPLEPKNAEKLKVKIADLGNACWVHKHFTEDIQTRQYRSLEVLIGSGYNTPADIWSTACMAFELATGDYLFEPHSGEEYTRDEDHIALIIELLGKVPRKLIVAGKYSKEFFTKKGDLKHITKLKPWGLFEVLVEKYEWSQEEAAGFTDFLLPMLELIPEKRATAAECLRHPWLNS

In assay [1], `CCN1CCN(Cc2ccc(NC(=O)c3ccc(C)c(/C=C/c4cnc5[nH]ccc5c4OC)c3)cc2C(F)(F)F)CC1` showed a residual activity of 0.15%.
Turning to `CCN1CCN(Cc2ccc(NC(=O)c3ccc(C)c(Oc4ccnc5[nH]ccc45)c3)cc2C(F)(F)F)CC1`, in assay [2], the inhibition entry was “inactive”. The inhibition is -9.4% in [3], 8.4% in assay [4] and -4.4% in [6]. Also, in [5], the % of control was 1.7%.
As for `CNc1cc(Oc2cc(C(=O)Nc3cc(N4CCN(C)CC4)cc(C(F)(F)F)c3)ccc2C)ncn1`, the inhibition in [7] is -5.2%; in [8], 22.9%; in [9], 16%.

The values are drawn from ChEMBL document CHEMBL5696442, “Discovery of type II inhibitors of TGFβ-activated kinase 1 (TAK1) and mitogen-activated protein kinase kinase kinase kinase 2 (MAP4K2)” (J Med Chem, 2015).
